Data taken from US11534504B2, “Compositions and methods for stabilizing coelenterazine and analogs and derivatives thereof” (Promega Corporation, priority 2018, dated 2022).
Each block holds one compound with its values, some of them ahead of it.

Experiments:
[1] = Analytical HPLC of Pluronic F-127 formulated substrates reconstituted in water (Examples 34-36); format: physicochemical
Description: 2.5 mgs of Pluronic® F-127 (Sigma Aldrich) were massed out into […] snap-top Eppendorf tubes. The polymer was heated to 70° C. in a water bath until melted, becoming a clear solution. […] 5 μL of this stock was added to the melted polymer and pipetted to mix. […] Condition 2—After addition of substrate, the substrate/polymer solution was further diluted with 45 μL of water, frozen, and lyophilized overnight.
Samples from both conditions 1 and 2 were reconstituted in water, diluted to 100 μM, and analyzed for chemical integrity via analytical HPLC (FIG. 54).
This formulation was also prepared for the coelenterazine analog, furimazine. 2.5 mgs of Pluronic® F-127(Sigma Aldrich) were massed out into 1.5 mL, snap-top Eppendorf tubes. The polymer was heated to 70° C. in a water bath until melted. A 10 mM stock solution of furimazine was prepared in EtOH. 5 μL of this stock was then added to the melted polymer and pipetted to mix. […] Condition 2—After addition of substrate, the substrate/polymer solution was further diluted with 45 μL of water, frozen, and then lyophilized overnight.
25 mgs of Pluronic® F-127 were massed out into a 1.5 mL, snap-top Eppendorf tube. The polymer was heated to 70° C. in a water bath until melted. […] An additional 50 μL of EtOH was used to wash and aid transfer of the substrate into the polymer solution. The solvent was removed under reduced pressure without heat.
After lyophilization, each sample was reconstituted with either 500 μL, 400 μL, 250 μL, or 100 μL water, respectively.

[2] = Absorbance of reconstituted furimazine compositions (Example 2); format: physicochemical
Description: Bulk solid furimazine was diluted in ethanol to a final concentration of 10 mM (solution 1). […] After mixing, vials containing solutions 3a-e were placed in dry ice to freeze for 1 hour. These frozen stocks where then lyophilized overnight for form dry pullulan matrices containing furimazine. […] Absorbance spectra of the formulated dry furimazine (50 nmols) with increasing amounts of pullulan after reconstitution in the PBS buffer are shown in FIG. 4A. Formulated furimazine with pullulan led to an increase in furimazine absorbance in aqueous solution. Concentration of furimazine was determined by Beer's law using the extinction coefficient of furimazine in methanol (21000 M^−1cm^−1) with absorbance measured at 254 nm. […] Absorbance of the formulated furimazine (95 μg) with increasing amounts of pullulan after reconstitution in the PBS buffer are shown in FIG. 4B. The solid furimazine formulated with increasing concentrations of pullulan matrix led to an increased in absorbance, and thus furimazine concentration in PBS buffer, compared to the conditions that contained only furimazine without pullulan.

[3] = molecular target: T1, cell culture expressing NanoLuc® enzyme (Oplophorus gracilirostris, UniProt Q9GV45, A31E/A60N/A81I/F95D/I117V/K70R/L54V/L99Q/M102K/N193R/P142E/Q151K/Q38R/Q45L/V71I/Y165I); test: Luminescence intensity of Nano-Glo substrate formulations with cell culture expressing NanoLuc (Examples 30-33); format: cell-based; settings: Example 32; 100 mM HP-β-CD
T1 construct: expressed in transfected cells
Description: One volume of Nano-Glo® Luciferase Assay Substrate (Promega Cat. #N113) was combined with 50 volumes of Nano-Glo® Luciferase Assay Buffer (Promega Cat. #N112) containing sodium ascorbate at concentrations ranging from 0 to 300 mM. The solutions were incubated at 37° C. prior to assay at several time points. Nano-Glo® Luciferase Assay Substrate used according to manufacturer's instructions (stored at −20° C. during the course of the experiment and reconstituted for each time point) was used as a positive control. A cell culture expressing NanoLuc® enzyme was used as a sample for each time point. One volume of reconstituted Nano-Glo® Luciferase Assay Buffer was mixed with one volume of sample. After 3 minutes, the luminescence intensity was measured with a Bio-Tek Synergy® H1 96-well plate reader. For each sample, the luminescence intensity was background subtracted and normalized to the −20° C. control signal.
A 4× furimazine solution was prepared by diluting the stock 1:25 in a buffer containing 200 mM MES pH 6.0, 200 mM hydroxypropyl-β-cyclodextrin (HP-β-CD), and 600 mM sodium ascorbate. The solution was lyophilized for 48 hours using a Virtis Advantage Pro® Lyophilizer. […] After 3 min, the luminescence intensity was measured with a Bio-Tek Synergy H1 96-well plate reader. […] For each sample, the luminescence intensity was background subtracted and normalized to the −20° C. control signal. […]

T1 sequence (Q9GV45 28-196 with tags or gaps with the stated changes limits assumed): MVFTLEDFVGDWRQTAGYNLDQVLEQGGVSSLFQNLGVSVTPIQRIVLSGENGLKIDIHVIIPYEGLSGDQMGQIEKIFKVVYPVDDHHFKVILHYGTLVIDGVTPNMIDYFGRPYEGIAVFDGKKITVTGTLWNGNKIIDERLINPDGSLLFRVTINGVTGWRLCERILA

Area Percent, peak at retention time 6.969-6.985 min ([1]; Example 34): 1.571%
Compound: O=c1c(Cc2ccco2)nc2c(Cc3ccccc3)[nH]c(-c3cccc(O)c3)cn1-2 [JRW-0238, 8-benzyl-2-(furan-2-ylmethyl)-6-(3-hydroxyphenyl)imidazo[1,2-a]pyrazin-3(7H)-one]

Area Percent, peak at retention time 6.104-6.109 min ([1]; Example 35): 0.705%
Area Percent, peak at retention time 6.541-6.548 min ([1]; Example 35): 1.407%
Area Percent, peak at retention time 7.949-7.957 min ([1]; Example 35): 1.030%
Area Percent, peak at retention time 5.028-5.038 min (main peak) ([1]; Example 35, furimazine, 100 μM): 96.858%
absorbance at 254 nm ([2]; 19.08 μg furimazine in 0.5 mL PBS pH 6.8, 30 minutes at room temperature): 0.0571
calculated concentration of furimazine in solution ([2]; Beer's law from absorbance at 254 nm, 19.08 μg in 0.5 mL PBS pH 6.8): 0.0082 mM
Compound: O=c1c(Cc2ccco2)nc2c(Cc3ccccc3)[nH]c(-c3ccccc3)cn1-2 [furimazine, 8-benzyl-2-(furan-2-ylmethyl)-6-phenylimidazo[1,2-a]pyrazin-3(7H)-one]

Compound: hydroxypropyl-β-cyclodextrin [HP-β-CD]
signal enhancement compared to Nano-Glo buffer alone [3]: 15 to 20%
